According to patent US6362369B1, “Phthalic acid diamide derivatives fluorine-containing aniline compounds as starting material, agricultural and horticultural insecticides, and a method for application of the insecticides” (Nihon Nohyaku Co., Ltd., priority 1997, dated 2002):

Legend:
[1] = system: diamondback moth (Plutella xylostella); assay: Insecticidal effect on diamondback moth (Test Example 1); format: in vivo; conditions: mortality judged according to the criterion shown in Test Example 1
Method in brief: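 Triplicate groups of 10 insects: eggs laid on Chinese cabbage seedling by adults, seedling immersed then air-dried, kept at 25° C. Day-6 hatch counts gave mortality, rated by criterion.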

[2] = system: rice leafroller (Cnaphalocrocis medinalis); assay: Insecticidal effect on rice leafroller (Test Example 3); format: in vivo; conditions: 500 ppm, rice lamina dip, third-instar larvae, four days after inoculation, 25° C., humidity 70%
Method in brief: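 Insecticidal effect is judged by a predefined criterion from dead/alive counts four days after infesting air-dried lamina with third-instar larvae, kept on moistened filter paper at 25° C, 70% humidity.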

Compound | Insecticidal effect on diamondback moth (Test Example 1), judged grade [1] | Insecticidal effect on rice leafroller (Test Example 3), judged grade [2]
Cc1cc(Br)ccc1NC(=O)c1cccc([N+](=O)[O-])c1C(=O)NC(C)C [compound 671] | A (100) | D (79-50)
CC(C)NC(=O)c1c(C(=O)Nc2ccc(Cl)cc2C(F)(F)F)cccc1[N+](=O)[O-] [compound 679] | A (100) | A (100)
Cc1cc(NC(=O)c2cccc([N+](=O)[O-])c2C(=O)NC(C)C)ccc1Br [compound 680] | A (100) | D (79-50)
Cc1cc(C(F)(F)F)ccc1NC(=O)c1cccc([N+](=O)[O-])c1C(=O)NC(C)C [compound 682] | A (100) | A (100)
COc1ccc(NC(=O)c2cccc([N+](=O)[O-])c2C(=O)NC(C)C)c(C)c1 [compound 688] | A (100) | A (100)
Cc1cc(OC(C)C)ccc1NC(=O)c1cccc([N+](=O)[O-])c1C(=O)NC(C)C [compound 690] | A (100) | A (100)
COc1c(C)ccc(NC(=O)c2cccc([N+](=O)[O-])c2C(=O)NC(C)C)c1C [compound 694] | A (100) | A (100)
Cc1cc(OCC(F)(F)F)ccc1NC(=O)c1cccc([N+](=O)[O-])c1C(=O)NC(C)C [compound 697] | A (100) | A (100)
CC(C)NC(=O)c1c(C(=O)Nc2ccc(OC(F)(F)F)cc2Cl)cccc1[N+](=O)[O-] [compound 704] | A (100) | A (100)
Cc1c(NC(=O)c2cccc([N+](=O)[O-])c2C(=O)NC(C)C)ccc(OC(F)F)c1Cl [compound 717] | A (100) | A (100)
Cc1cc(OC(F)(F)C(F)F)c(Cl)cc1NC(=O)c1cccc([N+](=O)[O-])c1C(=O)NC(C)C [compound 718] | A (100) | A (100)
Cc1cc(SC(F)F)ccc1NC(=O)c1cccc([N+](=O)[O-])c1C(=O)NC(C)C [compound 722] | A (100) | A (100)
Cc1cc(N(C)C)ccc1NC(=O)c1cccc([N+](=O)[O-])c1C(=O)NC(C)C [compound 723] | D (79-50) | D (79-50)
Cc1cc(Oc2cccc(C(F)(F)F)c2)ccc1NC(=O)c1cccc([N+](=O)[O-])c1C(=O)NC(C)C [compound 724] | A (100) | B (99-90)
Cc1cc(Oc2ccc(C(F)(F)F)cn2)ccc1NC(=O)c1cccc([N+](=O)[O-])c1C(=O)NC(C)C [compound 728] | A (100) | A (100)
Cc1cc(Oc2ncc(C(F)(F)F)cc2Cl)ccc1NC(=O)c1cccc([N+](=O)[O-])c1C(=O)NC(C)C [compound 729] | A (100) | A (100)
CC(C)NC(=O)c1cccc([N+](=O)[O-])c1C(=O)Nc1ccc(C(F)(F)F)cc1Cl [compound 740] | A (100) | A (100)

Compound | Insecticidal effect on diamondback moth (Test Example 1), judged grade [1] | Insecticidal effect on rice leafroller (Test Example 3), judged grade [2]
Cc1cc(Cl)ccc1NC(=O)c1cccc(C)c1C(=O)NC(C)C [compound 750] | A (100) | A (100)
Cc1cc(OC(F)F)ccc1NC(=O)c1cccc(C)c1C(=O)NC(C)C [compound 751] | A (100) | A (100)
Cc1ccc(Cl)cc1NC(=O)c1cccc(C(F)(F)F)c1C(=O)NC(C)C [compound 755] | A (100) | A (100)
COc1cccc(C(=O)NC(C)C)c1C(=O)Nc1ccc(OC(F)(F)F)cc1 [compound 769] | A (100) | D (79-50)
COc1cccc(C(=O)NC(C)C)c1C(=O)Nc1ccc(Br)cc1C [compound 771] | A (100) | C (89-80)
Cc1cc(Cl)ccc1NC(=O)c1cccc(OC(F)F)c1C(=O)NC(C)C [compound 772] | A (100) | A (100)
Cc1ccc(Cl)cc1NC(=O)c1cccc(OC(F)F)c1C(=O)NC(C)C [compound 773] | A (100) | A (100)
Cc1cc(OC(F)F)ccc1NC(=O)c1cccc(OC(F)F)c1C(=O)NC(C)C [compound 774] | A (100) | A (100)
Cc1ccc(Cl)cc1NC(=O)c1cc(OC(F)F)ccc1C(=O)NC(C)C [compound 776] | B (99-90) | D (79-50)
Cc1cc(Cl)ccc1NC(=O)c1c(OC(F)F)cccc1C(=O)NC(C)C [compound 777] | A (100) | D (79-50)
Cc1ccc(Cl)cc1NC(=O)c1c(OC(F)F)cccc1C(=O)NC(C)C [compound 778] | A (100) | A (100)
CSc1cccc(C(=O)Nc2ccc(Br)cc2C)c1C(=O)NC(C)C [compound 782] | A (100) | A (100)
Cc1cc(Cl)ccc1NC(=O)c1cccc(SC(C)C)c1C(=O)NC(C)C [compound 788] | C (89-80) | C (89-80)
Cc1cc(OC(F)F)ccc1NC(=O)c1cccc([S+](C)[O-])c1C(=O)NC(C)C (stereo not drawn) [compound 791] | A (100) | A (100)
Cc1cc(OC(F)F)ccc1NC(=O)c1cccc(SCC(F)(F)F)c1C(=O)NC(C)C [compound 797] | A (100) | C (89-80)
Cc1cc(OC(F)F)ccc1NC(=O)c1cccc([S+]([O-])CC(F)(F)F)c1C(=O)NC(C)C (stereo not drawn) [compound 799] | A (100) | A (100)
